Where two headings read alike, the source gives them in different places.
How the values were obtained:
[1] = biological target: T1, wild-type CFTR (Homo sapiens, UniProt P13569); assay: Macroscopic currents in excised inside-out patches from BHK-CFTR cells; format: biochemical; design: expressed in transfected cells; provided by J. Hanrahan (McGill University); conditions: for EC50: moderately phosphorylated wild-type channels, normalized to peak current at 10 μM, read-out: EC50 of CFTR current stimulation (titration)
Procedure: Cell culture DNA constructs and transfections. Baby hamster kidney (BHK) cells stably expressing wild type human CFTR (BHK-CFTR) were provided by J. Hanrahan (McGill University). BHK-CFTR cells were cultured in Dulbecco's modified Eagle's medium (DMEM (Mediatech)) supplemented with 5% fetal bovine serum (FBS) and 1 mM penicillin-streptomycin. The growth media for the BHK-CFTR cells also contained 0.5 mM methotrexate to maintain selection for CFTR-expressing cells (22). HEK-293T cells were transiently transfected with wild-type or mutant CFTR cDNA using the Lipofectamine transfection kit following manufacturer's recommendations (Invitrogen, Corp). HEK-293T cells were cultured in DMEM. All cells were grown on plastic coverslips for patch clamp recording and were used 2-3 days post-seeding. Electrophysiology and data analysis. Macroscopic and multi-channel currents were recorded in the excised, inside-out configuration. Patch pipettes were pulled from Corning 8161 glass to tip resistances of […] (macroscopic recordings) or 8-10 mOhm (micropatch studies). […] CFTR currents were recorded in symmetrical solution containing (in mM): 140 N-methyl-D-glucaniine-Cl, 3 MgCl2, 1 EGTA and 10 TES. The pH was adjusted to 7.3. Macroscopic currents were evoked using a ramp protocol from +80 to −80 mV with a 10 sec time period. Patches were held at −80 mV or +80 mV for micropatch (multichannel) recordings. All patch clamp experiments were performed at 21-23° C. Signals from macroscopic and single channel recording were filtered at 20 and 200 Hz, respectively. Data acquisition and analysis were performed using pCLAMP8 and pCLAMP9 software (Axon Instruments). Curve fitting for kinetic analysis was performed using Microcal Origin software. Averaged data are presented as mean +/−SEM. Statistical comparisons were made by performing unpaired t-tests unless otherwise indicated. Ussing Chamber Experiments-CFBE41o epithelial cells stably transfected with ΔF508-CFTR or transiently transfected with wild-type CFTR were cultured as electrically resistive monolayers and assayed in Ussing chambers as described (16). ΔF508-CFTR-expressing monolayers were grown at 27° C. for 2-3 days to enhance the surface expression of this temperature-sensitive mutant. A serosal-to-mucosal Cl^− gradient (120 to 1.2 mM) was imposed, followed by amiloride addition (100 μM) to block Na^+ currents. Compounds were added to both chambers at the indicated concentrations. A 3-mV voltage pulse was imposed every 100 s to monitor transepithelial resistance.

[2] = tested on: CFTR-minus cells; assay: Currents across patches excised from CFTR-minus (untransfected) cells; format: biochemical
Procedure: (§1) Cell culture DNA constructs and transfections. Baby hamster kidney (BHK) cells stably expressing wild type human CFTR (BHK-CFTR) were provided by J. Hanrahan (McGill University). BHK-CFTR cells were cultured in Dulbecco's modified Eagle's medium (DMEM (Mediatech)) supplemented with 5% fetal bovine serum (FBS) and 1 mM penicillin-streptomycin. The growth media for the BHK-CFTR cells also contained 0.5 mM methotrexate to maintain selection for CFTR-expressing cells (22). HEK-293T cells were transiently transfected with wild-type or mutant CFTR cDNA using the Lipofectamine transfection kit following manufacturer's recommendations (Invitrogen, Corp). HEK-293T cells were cultured in DMEM. All cells were grown on plastic coverslips for patch clamp recording and were used 2-3 days post-seeding. Electrophysiology and data analysis. Macroscopic and multi-channel currents were recorded in the excised, inside-out configuration. Patch pipettes were pulled from Corning 8161 glass to tip resistances of […] (macroscopic recordings) or 8-10 mOhm (micropatch studies). CFTR channels were activated following patch excision by exposure of the cytoplasmic face of the patch to catalytic subunit of protein kinase A (PKA; 110 U/ml; Promega) and Mg-ATP (1.5 mM). CFTR currents were recorded in symmetrical solution containing (in mM): 140 N-methyl-D-glucaniine-Cl, 3 MgCl2, 1 EGTA and 10 TES. The pH was adjusted to 7.3. Macroscopic currents were evoked using a ramp protocol from +80 to −80 mV with a 10 sec time period. Patches were held at −80 mV or +80 mV for micropatch (multichannel) recordings. All patch clamp experiments were performed at 21-23° C. Signals from macroscopic and single channel recording were filtered at 20 and 200 Hz, respectively. Data acquisition and analysis were performed using pCLAMP8 and pCLAMP9 software (Axon Instruments). Curve fitting for kinetic analysis was performed using Microcal Origin software. Averaged data are presented as mean +/−SEM. Statistical comparisons were made by performing unpaired t-tests unless otherwise indicated. Ussing Chamber Experiments-CFBE41o epithelial cells stably transfected with ΔF508-CFTR or transiently transfected with wild-type CFTR were cultured as electrically resistive monolayers and assayed in Ussing chambers as described (16). ΔF508-CFTR-expressing monolayers were grown at 27° C. for 2-3 days to enhance the surface expression of this temperature-sensitive mutant. A serosal-to-mucosal Cl^− gradient (120 to 1.2 mM) was imposed, followed by amiloride addition (100 μM) to block Na^+ currents. Compounds were added to both chambers at the indicated concentrations. A 3-mV voltage pulse was imposed every 100 s to monitor transepithelial resistance.

[3] = biological target: T1, wild-type CFTR; assay: Macroscopic currents in excised patches from wild-type CFTR-transfected HEK-293T cells; format: biochemical; design: expressed in transfected cells; host or cells: HEK-293T, transient (Lipofectamine); conditions: 10 μM; 1.5 mM Mg-ATP and 110 U/ml PKA
Procedure: (§2) Cell culture DNA constructs and transfections. Baby hamster kidney (BHK) cells stably expressing wild type human CFTR (BHK-CFTR) were provided by J. Hanrahan (McGill University). BHK-CFTR cells were cultured in Dulbecco's modified Eagle's medium (DMEM (Mediatech)) supplemented with 5% fetal bovine serum (FBS) and 1 mM penicillin-streptomycin. The growth media for the BHK-CFTR cells also contained 0.5 mM methotrexate to maintain selection for CFTR-expressing cells (22). HEK-293T cells were transiently transfected with wild-type or mutant CFTR cDNA using the Lipofectamine transfection kit following manufacturer's recommendations (Invitrogen, Corp). HEK-293T cells were cultured in DMEM. All cells were grown on plastic coverslips for patch clamp recording and were used 2-3 days post-seeding. Electrophysiology and data analysis. Macroscopic and multi-channel currents were recorded in the excised, inside-out configuration. Patch pipettes were pulled from Corning 8161 glass to tip resistances of […] (macroscopic recordings) or 8-10 mOhm (micropatch studies). CFTR channels were activated following patch excision by exposure of the cytoplasmic face of the patch to catalytic subunit of protein kinase A (PKA; 110 U/ml; Promega) and Mg-ATP (1.5 mM). CFTR currents were recorded in symmetrical solution containing (in mM): 140 N-methyl-D-glucaniine-Cl, 3 MgCl2, 1 EGTA and 10 TES. […]

[4] = biological target: T2, ΔF508-CFTR (Homo sapiens, UniProt P13569, DEL508-508); assay: Micropatch recording of HEK-293T patches expressing ΔF508-CFTR, opening rate and Po; format: biochemical
T2 construct: expressed in transfected cells; host or cells: HEK-293T, transient; grown at 28° C. for 24 hrs
Procedure: as §1

[5] = tested on: parental CFBE41o- monolayers; assay: Ussing chamber transepithelial currents, parental CFBE41o- monolayers; format: cell-based, human; conditions: n=6, data not shown
Procedure: as §2

[6] = biological target: T3, G551D-CFTR (Homo sapiens, UniProt P13569, G551D); assay: Macroscopic currents in excised patches from HEK-293T cells expressing G551D-CFTR; format: biochemical; conditions: 10 μM
T3 construct: expressed in transfected cells; host or cells: HEK-293T, transient
Procedure: as §1, with “Ussing Chamber Experiments-CFBE41o epithelial cells stably transfected with ΔF508-CFTR or transiently transfected with wild-type CFTR were cultured as electrically resistive monolayers and assayed in Ussing chambers as described (16). ΔF508-CFTR-expressing monolayers were grown at 27° C. for 2-3 days to enhance the surface expression of this temperature-sensitive mutant. A serosal-to-mucosal Cl^− gradient (120 to 1.2 mM) was imposed, followed by amiloride addition (100 μM) to block Na^+ currents. Compounds were added to both chambers at the indicated concentrations. A 3-mV voltage pulse was imposed every 100 s to monitor transepithelial resistance.” left out

[7] = Solubility limit on achievable dose; format: physicochemical; conditions: 200-400 μM doses impossible to achieve
[8] = 10 μM, high PKA, 1.5 mM MgATP, −80 mV, best guess estimate, mean±S.E., n=4

T2 sequence (P13569 with tags, fused parts or gaps DEL508-508): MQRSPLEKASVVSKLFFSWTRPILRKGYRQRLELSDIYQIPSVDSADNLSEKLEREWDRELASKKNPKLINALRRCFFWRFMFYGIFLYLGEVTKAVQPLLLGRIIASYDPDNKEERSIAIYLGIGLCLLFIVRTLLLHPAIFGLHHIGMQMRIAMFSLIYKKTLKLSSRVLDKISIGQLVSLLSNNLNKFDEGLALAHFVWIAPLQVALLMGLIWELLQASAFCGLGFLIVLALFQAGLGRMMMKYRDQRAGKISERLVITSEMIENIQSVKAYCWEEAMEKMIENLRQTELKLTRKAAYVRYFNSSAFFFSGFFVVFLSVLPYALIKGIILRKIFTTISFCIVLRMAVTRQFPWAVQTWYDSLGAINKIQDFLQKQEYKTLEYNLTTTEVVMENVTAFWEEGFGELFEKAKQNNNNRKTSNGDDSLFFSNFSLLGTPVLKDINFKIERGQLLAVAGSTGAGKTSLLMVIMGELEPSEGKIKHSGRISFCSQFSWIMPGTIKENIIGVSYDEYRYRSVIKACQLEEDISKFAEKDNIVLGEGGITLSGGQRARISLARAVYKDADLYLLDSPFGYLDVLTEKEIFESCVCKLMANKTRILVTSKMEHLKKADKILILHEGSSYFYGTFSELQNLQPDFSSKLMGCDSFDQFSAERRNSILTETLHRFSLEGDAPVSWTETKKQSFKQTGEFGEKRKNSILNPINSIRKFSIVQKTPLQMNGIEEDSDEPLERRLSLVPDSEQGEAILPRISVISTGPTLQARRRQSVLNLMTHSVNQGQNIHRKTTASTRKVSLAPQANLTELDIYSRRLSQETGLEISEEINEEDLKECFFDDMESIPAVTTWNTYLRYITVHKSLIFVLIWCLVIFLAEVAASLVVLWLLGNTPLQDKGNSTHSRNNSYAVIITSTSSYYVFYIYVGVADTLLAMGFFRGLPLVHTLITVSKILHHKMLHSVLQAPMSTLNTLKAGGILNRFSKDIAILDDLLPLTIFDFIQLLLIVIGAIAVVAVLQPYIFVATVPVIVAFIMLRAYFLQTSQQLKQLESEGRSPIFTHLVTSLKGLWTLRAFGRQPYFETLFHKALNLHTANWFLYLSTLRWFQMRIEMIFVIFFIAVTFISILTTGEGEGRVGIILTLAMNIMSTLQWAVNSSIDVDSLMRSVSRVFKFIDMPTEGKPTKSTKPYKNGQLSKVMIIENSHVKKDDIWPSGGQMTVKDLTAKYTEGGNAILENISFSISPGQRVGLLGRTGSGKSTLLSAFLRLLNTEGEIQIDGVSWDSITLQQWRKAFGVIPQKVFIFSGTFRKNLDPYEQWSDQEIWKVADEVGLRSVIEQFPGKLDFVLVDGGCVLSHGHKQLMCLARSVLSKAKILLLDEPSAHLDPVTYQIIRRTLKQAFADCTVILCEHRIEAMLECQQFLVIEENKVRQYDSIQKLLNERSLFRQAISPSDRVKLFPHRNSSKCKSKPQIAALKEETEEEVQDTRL
T1 sequence (P13569 whole entry): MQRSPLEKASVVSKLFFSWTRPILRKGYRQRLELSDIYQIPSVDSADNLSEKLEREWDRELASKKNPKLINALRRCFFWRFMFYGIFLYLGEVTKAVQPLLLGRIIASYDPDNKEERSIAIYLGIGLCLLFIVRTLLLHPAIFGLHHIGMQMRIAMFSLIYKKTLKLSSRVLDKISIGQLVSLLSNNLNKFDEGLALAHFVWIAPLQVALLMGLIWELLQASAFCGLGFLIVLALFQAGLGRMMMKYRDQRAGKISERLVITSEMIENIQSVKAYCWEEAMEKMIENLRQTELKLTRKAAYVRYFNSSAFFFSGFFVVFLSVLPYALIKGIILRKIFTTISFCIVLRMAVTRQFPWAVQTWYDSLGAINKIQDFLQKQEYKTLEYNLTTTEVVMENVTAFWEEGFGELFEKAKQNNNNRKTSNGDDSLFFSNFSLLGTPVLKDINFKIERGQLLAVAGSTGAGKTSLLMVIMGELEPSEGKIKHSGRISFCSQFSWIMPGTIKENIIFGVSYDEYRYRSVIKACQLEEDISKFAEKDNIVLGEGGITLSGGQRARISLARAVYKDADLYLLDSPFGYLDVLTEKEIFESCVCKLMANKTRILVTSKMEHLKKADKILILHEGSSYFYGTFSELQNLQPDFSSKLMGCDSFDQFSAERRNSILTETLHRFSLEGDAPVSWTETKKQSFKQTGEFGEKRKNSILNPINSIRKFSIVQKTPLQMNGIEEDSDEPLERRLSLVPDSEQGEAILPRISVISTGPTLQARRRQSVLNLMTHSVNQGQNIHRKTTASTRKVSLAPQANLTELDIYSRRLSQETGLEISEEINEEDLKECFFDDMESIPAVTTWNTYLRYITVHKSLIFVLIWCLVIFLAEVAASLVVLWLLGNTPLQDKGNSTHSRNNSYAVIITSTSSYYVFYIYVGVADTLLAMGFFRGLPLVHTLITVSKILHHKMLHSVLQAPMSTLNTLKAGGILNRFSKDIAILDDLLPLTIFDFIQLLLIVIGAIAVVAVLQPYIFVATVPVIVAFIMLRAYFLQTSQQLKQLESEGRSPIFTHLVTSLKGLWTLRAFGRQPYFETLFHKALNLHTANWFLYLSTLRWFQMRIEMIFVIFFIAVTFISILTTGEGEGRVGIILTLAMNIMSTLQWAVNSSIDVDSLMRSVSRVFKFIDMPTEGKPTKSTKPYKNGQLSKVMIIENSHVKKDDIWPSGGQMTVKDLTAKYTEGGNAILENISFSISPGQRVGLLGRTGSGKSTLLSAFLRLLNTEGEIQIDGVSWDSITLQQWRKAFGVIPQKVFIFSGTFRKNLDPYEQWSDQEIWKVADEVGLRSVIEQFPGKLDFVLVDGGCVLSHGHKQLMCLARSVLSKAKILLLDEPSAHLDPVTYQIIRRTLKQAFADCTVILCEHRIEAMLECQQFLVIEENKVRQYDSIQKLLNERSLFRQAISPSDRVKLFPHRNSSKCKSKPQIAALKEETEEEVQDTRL
T3 sequence (P13569 whole entry G551D): as the sequence (P13569 whole entry) above, with G551D counted along it

NC(=O)c1cc([N+](=O)[O-])ccc1NCCCc1ccccc1 [NPPB-Am]
relative stimulation as a function of CFTR phosphorylation [1]: greater relative stimulatory effect on poorly phosphorylated CFTR channels | time course and reversibility of the stimulation of CFTR current [1]: rapid, stable and quickly reversible upon wash out | voltage dependence of the stimulation of CFTR current [1]: voltage-independent with no evidence for CFTR inhibition at any holding potential | increase of the current ([1]; 125 nM, mean titration data, n=8): approximately 20% | increase of the current ([1]; 250 nM, representative patch): 25% | effect on currents of poorly phosphorylated or thiolated CFTR channels ([1]; 10 μM): effectively stimulated the currents | effect on currents of moderately phosphorylated wild-type channels ([1]; 10 μM, high PKA followed by PKI): stimulates currents in both directions | effect on the Mg-ATP sensitivity of CFTR activity ([1]; Mg-ATP titration with and without compound, data not shown): no obvious effect | EC50 ([1]; listed as NPPB-AM): 960 nM | EC50 [1]: 710 nM | lowest concentration with detectable increases in CFTR currents ([1]; titration experiments): 250 nM | effect on currents across membrane patches excised from CFTR-minus cells ([2]; data not shown): no effect | effect on currents across a patch from untransfected HEK-293T cells ([2]; untransfected HEK-293T): neither | stimulation of the activity of the wild-type channel [3]: 1.5-2 fold | mean single channel opening rate, post compound [4, 8]: 0.87±0.31 openings/s/channel | single channel Po, post compound [4, 8]: 0.25±0.07 | simultaneous openings after compound addition ([4]; 10 μM, representative micropatch, no more than 2 before addition): 12-15 | effect on ΔF508-CFTR channel opening rate ([4]; fewer than 10 detectable channels per patch): large increase in channel opening rate | increase in transepithelial current [5]: 1.1+/−2.7 μA/cm^2 | effect on G551D-CFTR activity [6]: only modestly stimulated | solubility relative to NPPB [7]: less soluble

From patent US20080146669A1, “Novel Chloride Channel Pore Openers” (THE UAB RESEARCH FOUNDATION, priority 2005, published 2008)
